Data on one compound can be found in ChEMBL document CHEMBL1156433, “Multiple sequential steps involved in the binding of inhibitors to cytochrome P450 3A4” (J Biol Chem, 2007).

Peptide text beside a SMILES is read from it.

In this assay the target is Cytochrome P450 3A4 (Homo sapiens, UniProt P08684). Put plainly: Binding affinity to recombinant CYP3A4 expressed in Escherichia coli assessed as spectral dissociation constant by spectrophotometric equilibrium binding titration method. The format is ADME. Particulars: read-out: K.
Sequence of Cytochrome P450 3A4 (P08684 whole entry): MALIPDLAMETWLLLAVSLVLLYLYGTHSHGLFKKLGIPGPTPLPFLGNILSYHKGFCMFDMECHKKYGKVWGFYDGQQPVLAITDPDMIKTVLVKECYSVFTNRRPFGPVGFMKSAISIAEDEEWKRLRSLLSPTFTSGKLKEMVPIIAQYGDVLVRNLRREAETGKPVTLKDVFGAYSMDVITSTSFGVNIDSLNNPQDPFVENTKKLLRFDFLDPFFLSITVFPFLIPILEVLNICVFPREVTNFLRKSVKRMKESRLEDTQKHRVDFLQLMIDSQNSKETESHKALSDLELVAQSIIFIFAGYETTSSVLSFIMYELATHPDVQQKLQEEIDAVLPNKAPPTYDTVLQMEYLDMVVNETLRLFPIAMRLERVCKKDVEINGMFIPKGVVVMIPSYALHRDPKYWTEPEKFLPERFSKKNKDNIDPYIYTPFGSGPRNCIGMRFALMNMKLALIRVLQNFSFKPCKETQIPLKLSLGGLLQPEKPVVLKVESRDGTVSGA

In the case of `NC(=O)[C@@H]1CCCN1C(=O)[C@H](Cc1ccccc1)NC(=O)[C@@H]1CCCN1C(=O)[C@@H](N)Cc1ccc(O)cc1` [MORPHICEPTIN] (H-YPFP-NH2), the Kd amounted to 7.8 mM.
